Measured values taken from publication PMC6437697 (Journal of Medicinal Chemistry, 2019).

Tests used:
Assay in all cases: KINOMEscan
Type in all cases: binding
Details in all cases: read-out: % control activity remaining
ZAP70 = biological target: T1, ZAP70 (Homo sapiens, UniProt P43403)
T1 construct: purchased Eurofins DiscoverX KINOMEscan
T1 sequence (P43403 1-619): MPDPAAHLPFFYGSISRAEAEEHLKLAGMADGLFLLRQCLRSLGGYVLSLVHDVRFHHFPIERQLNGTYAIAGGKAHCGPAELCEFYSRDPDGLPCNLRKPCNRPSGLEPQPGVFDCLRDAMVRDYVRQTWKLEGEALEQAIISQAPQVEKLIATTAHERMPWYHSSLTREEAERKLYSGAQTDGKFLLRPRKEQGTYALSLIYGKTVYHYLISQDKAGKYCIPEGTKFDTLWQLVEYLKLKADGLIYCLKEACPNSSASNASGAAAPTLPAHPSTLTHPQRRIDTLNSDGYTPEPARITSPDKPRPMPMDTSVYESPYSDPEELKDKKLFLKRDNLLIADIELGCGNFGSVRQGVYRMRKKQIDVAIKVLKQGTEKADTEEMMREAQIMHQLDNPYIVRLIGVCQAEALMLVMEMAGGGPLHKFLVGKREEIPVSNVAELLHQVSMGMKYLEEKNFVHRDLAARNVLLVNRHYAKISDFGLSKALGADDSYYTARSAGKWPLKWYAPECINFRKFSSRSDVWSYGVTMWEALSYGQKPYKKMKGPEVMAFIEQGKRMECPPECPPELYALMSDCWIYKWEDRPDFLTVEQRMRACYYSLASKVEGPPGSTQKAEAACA

p38-beta = biological target: T2, p38-beta (Homo sapiens, UniProt Q15759)
T2 construct: purchased Eurofins DiscoverX KINOMEscan

BRAF(V600E) = biological target: T3, BRAF(V600E) (Homo sapiens, UniProt P15056, V600E)
T3 construct: purchased Eurofins DiscoverX KINOMEscan

FYN = biological target: T4, FYN (Homo sapiens, UniProt P06241)
T4 construct: purchased Eurofins DiscoverX KINOMEscan

[1] = biological target: T5, TYK2(JH2domain-pseudokinase) (Homo sapiens, UniProt P29597)
T5 construct: TYK2(JH2domain-pseudokinase); purchased Eurofins DiscoverX KINOMEscan

DCAMKL2 = biological target: T6, DCAMKL2 (Homo sapiens, UniProt Q8N568)
T6 construct: purchased Eurofins DiscoverX KINOMEscan
T6 sequence (Q8N568 1-766): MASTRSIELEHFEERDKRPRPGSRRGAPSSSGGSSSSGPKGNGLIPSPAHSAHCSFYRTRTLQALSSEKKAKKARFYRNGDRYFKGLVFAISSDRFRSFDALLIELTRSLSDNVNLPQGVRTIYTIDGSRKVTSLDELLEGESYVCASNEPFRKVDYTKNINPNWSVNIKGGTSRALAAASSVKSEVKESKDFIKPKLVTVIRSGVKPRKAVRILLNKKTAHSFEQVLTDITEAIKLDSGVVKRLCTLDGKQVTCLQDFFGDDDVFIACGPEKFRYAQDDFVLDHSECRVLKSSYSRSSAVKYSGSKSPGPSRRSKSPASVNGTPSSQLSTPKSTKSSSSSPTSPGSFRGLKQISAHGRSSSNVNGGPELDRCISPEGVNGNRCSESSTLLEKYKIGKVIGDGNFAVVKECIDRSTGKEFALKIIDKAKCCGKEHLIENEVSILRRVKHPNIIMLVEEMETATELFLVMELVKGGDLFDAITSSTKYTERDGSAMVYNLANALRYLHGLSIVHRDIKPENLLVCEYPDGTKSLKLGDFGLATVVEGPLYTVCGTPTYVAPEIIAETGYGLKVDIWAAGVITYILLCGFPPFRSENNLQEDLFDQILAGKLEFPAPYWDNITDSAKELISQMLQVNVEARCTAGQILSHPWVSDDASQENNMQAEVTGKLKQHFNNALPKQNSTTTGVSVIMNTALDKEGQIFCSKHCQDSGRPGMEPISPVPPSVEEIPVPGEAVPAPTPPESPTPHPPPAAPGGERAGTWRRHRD

NEK10 = biological target: T7, NEK10 (Homo sapiens, UniProt Q6ZWH5)
T7 construct: purchased Eurofins DiscoverX KINOMEscan
T7 sequence (Q6ZWH5 1-1172): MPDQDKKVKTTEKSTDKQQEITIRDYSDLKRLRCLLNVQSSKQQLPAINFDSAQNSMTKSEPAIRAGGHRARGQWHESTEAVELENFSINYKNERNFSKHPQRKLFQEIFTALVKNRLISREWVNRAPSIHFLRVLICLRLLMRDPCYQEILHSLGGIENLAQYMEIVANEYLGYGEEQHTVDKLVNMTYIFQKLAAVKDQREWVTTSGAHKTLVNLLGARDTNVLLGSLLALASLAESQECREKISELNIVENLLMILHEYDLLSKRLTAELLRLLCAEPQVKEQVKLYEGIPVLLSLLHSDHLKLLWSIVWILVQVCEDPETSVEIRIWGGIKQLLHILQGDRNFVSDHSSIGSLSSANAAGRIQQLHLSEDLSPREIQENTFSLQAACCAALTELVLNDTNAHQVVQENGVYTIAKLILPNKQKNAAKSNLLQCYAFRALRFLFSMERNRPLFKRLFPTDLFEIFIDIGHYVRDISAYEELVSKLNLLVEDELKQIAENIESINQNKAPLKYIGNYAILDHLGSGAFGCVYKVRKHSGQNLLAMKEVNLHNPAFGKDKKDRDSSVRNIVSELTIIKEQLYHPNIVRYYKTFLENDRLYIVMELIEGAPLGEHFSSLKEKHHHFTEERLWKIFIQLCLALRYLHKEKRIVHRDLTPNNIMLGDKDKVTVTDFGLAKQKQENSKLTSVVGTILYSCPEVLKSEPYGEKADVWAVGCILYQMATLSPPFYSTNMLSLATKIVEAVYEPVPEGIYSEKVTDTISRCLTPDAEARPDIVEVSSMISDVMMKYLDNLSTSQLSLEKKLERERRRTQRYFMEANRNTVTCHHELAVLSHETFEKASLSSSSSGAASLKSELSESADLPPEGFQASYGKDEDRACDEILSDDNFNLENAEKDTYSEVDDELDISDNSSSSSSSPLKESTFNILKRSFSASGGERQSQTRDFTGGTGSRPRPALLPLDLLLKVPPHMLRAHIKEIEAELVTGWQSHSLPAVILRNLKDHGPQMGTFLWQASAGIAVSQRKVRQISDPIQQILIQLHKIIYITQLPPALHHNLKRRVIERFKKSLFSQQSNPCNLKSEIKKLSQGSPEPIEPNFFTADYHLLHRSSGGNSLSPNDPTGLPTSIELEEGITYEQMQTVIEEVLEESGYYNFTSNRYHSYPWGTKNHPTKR

S6K1 = biological target: T8, S6K1 (Homo sapiens, UniProt P23443)
T8 construct: purchased Eurofins DiscoverX KINOMEscan
T8 sequence (P23443 whole entry): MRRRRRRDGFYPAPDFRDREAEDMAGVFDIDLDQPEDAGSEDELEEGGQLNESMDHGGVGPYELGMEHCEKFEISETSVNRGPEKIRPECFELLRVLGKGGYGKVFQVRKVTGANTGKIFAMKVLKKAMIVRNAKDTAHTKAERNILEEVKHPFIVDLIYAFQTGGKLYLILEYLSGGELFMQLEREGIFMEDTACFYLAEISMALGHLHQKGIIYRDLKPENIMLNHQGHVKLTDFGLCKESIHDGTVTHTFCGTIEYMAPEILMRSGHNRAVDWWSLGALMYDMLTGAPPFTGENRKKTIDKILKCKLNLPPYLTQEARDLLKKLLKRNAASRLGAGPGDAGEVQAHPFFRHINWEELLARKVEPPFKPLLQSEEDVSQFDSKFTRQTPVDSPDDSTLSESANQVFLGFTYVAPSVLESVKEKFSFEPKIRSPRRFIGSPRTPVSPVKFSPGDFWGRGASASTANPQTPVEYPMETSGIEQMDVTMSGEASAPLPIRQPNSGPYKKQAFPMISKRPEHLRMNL

T2 sequence (Q15759 whole entry): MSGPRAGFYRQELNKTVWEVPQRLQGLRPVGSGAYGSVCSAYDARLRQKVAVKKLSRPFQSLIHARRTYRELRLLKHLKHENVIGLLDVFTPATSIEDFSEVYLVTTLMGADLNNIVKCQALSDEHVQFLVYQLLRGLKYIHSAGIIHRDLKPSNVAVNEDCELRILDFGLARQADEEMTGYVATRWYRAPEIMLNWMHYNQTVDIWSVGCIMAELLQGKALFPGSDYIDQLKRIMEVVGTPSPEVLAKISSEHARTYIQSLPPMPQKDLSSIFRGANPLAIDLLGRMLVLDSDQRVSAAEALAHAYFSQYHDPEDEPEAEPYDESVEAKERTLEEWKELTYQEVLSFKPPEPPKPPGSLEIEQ
T4 sequence (P06241 whole entry): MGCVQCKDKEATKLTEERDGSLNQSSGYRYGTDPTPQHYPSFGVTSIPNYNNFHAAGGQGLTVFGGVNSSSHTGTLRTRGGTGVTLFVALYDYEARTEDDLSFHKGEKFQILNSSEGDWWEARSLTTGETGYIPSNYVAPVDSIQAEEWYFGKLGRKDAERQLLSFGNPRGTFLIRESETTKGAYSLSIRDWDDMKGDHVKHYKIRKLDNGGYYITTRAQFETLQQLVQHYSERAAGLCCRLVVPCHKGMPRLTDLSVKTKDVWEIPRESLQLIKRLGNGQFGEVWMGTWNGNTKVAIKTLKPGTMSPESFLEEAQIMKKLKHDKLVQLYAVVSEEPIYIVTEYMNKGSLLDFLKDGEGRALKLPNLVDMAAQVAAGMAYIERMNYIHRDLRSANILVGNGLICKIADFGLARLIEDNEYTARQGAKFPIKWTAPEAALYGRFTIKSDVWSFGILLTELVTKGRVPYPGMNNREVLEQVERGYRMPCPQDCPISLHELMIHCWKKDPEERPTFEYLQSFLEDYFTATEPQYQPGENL
T5 sequence (P29597 556-888 limits assumed): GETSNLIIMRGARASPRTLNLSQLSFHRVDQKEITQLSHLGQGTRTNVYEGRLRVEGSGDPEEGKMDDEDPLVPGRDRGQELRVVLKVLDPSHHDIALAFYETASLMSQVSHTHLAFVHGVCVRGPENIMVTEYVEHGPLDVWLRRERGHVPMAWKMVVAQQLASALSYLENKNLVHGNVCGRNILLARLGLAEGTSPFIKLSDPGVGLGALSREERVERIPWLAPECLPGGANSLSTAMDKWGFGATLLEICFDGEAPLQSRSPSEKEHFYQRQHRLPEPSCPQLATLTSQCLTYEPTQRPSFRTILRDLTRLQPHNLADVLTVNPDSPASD
T3 sequence (P15056 whole entry V600E): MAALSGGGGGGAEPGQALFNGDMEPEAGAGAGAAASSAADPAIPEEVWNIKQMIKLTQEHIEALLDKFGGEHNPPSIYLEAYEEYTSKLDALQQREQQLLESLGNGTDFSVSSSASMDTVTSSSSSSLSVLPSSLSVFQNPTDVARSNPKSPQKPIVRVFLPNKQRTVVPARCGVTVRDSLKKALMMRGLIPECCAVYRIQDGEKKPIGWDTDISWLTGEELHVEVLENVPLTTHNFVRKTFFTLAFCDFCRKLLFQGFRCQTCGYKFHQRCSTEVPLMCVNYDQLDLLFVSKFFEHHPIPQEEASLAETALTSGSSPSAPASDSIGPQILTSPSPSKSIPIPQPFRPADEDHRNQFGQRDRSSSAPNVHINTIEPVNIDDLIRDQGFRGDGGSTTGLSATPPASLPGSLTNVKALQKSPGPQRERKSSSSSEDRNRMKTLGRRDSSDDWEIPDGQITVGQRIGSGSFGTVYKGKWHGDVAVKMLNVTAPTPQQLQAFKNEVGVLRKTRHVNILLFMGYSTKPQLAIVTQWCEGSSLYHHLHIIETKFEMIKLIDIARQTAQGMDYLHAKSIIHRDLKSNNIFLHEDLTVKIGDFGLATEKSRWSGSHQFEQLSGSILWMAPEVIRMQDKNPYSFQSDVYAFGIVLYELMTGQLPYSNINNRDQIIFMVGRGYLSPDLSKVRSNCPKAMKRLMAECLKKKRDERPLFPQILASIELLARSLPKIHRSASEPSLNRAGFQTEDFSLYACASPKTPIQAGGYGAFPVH

SMILES	remaining binding at 1 µM (ZAP70) [%]	remaining binding at 1 µM (p38-beta) [%]	remaining binding at 1 µM (BRAF(V600E)) [%]	remaining binding at 1 µM (FYN) [%]	remaining binding at 1 µM [1] [%]	remaining binding at 1 µM (DCAMKL2) [%]	remaining binding at 1 µM (NEK10) [%]	remaining binding at 1 µM (S6K1) [%]
Clc1cc(NCC2CC2)c2ncc(-c3ccc4[nH]ncc4c3)n2n1 [compound 2, 6-Chloro-N-(cyclopropylmethyl)-3-(1H-indazol-5-yl)imidazo[1,2-b]pyridazin-8-amine]	84	94	99	95	91	95	92	90
O=C(CN1CCOCC1)N[C@H]1CC[C@H](Nc2cc(Cl)nn3c(-c4ccc5[nH]ncc5c4)cnc23)CC1 [compound 26]	100	94	89	96	99	92	72	88
CN1CCC(CNc2cc(Cl)nn3c(-c4cc5nc(Nc6ccccc6)[nH]c5cc4F)cnc23)CC1 [compound 31, 6-Chloro-3-(6-fluoro-2-(phenylamino)-1H-benzo[d]imidazol-5-yl)-N-((1-methylpiperidin-4-yl)methyl)imidazo[1,2-b]pyridazin-8-amine]	83	99	98	98	73	96	100	95
